This passage reports inhibition results from ChEMBL document CHEMBL5385978, “Discovery of novel SOS1 inhibitors using machine learning” (RSC Med Chem, 2024).

The subject of this test is SOS1-KRAS (Homo sapiens), Q07889+P01116 [G12C]. The experiment in a line: Inhibition of his tagged SOS1/GST-tagged KRAS G12C mutant (unknown origin) protein-protein interaction at 25 ug/ml incubated for 2 hrs by HTRF assay relative to control. The conditions noted are these: dose 25.0 µg/ml. The format is protein-complex assay.

`CC(C)CCN1CCCN(c2nc(Cc3ccccc3)nc3c2ncn3-c2ccccc2)CC1` registered an inhibition of 2.1%. The same measure for `CC(C)OCCCNC1CCN(c2ncc(NC(=O)c3ccccc3)cc2C(=O)O)CC1`: 6.3%.
